According to patent publication US6358514B1, “Combination of a retinoid with a histidine derivative” (L'Oreal, priority 1998, dated 2002):

Assay type: physicochemical
Protocol: The stability of a retinoid is defined in accordance with the present invention by the percentage of the retinoid which remains in its original form after the composition comprising it has been stored for a given period and at a given temperature.
Test of stability of 0.3% all-trans retinol in a water/ethanol mixture stored at 45° C.
The conditions of the study are as follows: test compound at 0.1% (as weight/volume) in water/ethanol (40/60%) all-trans retinol sold by the company Fluka at 0.3% (as weight/volume) in water/ethanol (40/60%) aerobic medium with 55% by volume of air and 45% by volume of ethanol/water storage at 45° C. in amber-coloured bottles.
Degradation of the retinol under these conditions reaches 100% in 7 days of storage at 45° C. The storage conditions to which we subjected the compositions are particularly harsh.
The residual retinol content is monitored by HPLC (on a Spherisorb ODS1 C18 column, by elution with an H2O/CH3CO2H/CH3CO2NH4/acetonitrile mixture: 15/1/0.4/83.6) at 7 days (RT1) and 15 days (RT2) of storage at 45° C. in aerobic medium (55% by volume of air).

| SMILES | Degradation of the retinol (7 days, 0.3 % (weight/volume)) [%] | stabilization of retinol compared with the histidine derivatives |
| --- | --- | --- |
| CC1=C(/C=C/C(C)=C/C=C/C(C)=C/CO)C(C)(C)CCC1 [retinol, all-trans retinol] | 100 | – |
| NCCC(=O)N[C@@H](Cc1cnc[nH]1)C(=O)O [carnosine] | – | stabilizes retinol much less |
